Experimental data as given in patent US10670605B2, “Cysteine reactive probes and uses thereof” (The Scripps Research Institute, priority 2015, dated 2020).
One block for each compound: values may come before it.

How the values were obtained:
Experiment in all cases: Competitive isoTOP-ABPP in situ (fragment-treated cells)
Format in all cases: cell-based
[1] = target: T1, cysteines in MDA-MB-231 and Ramos cells (Homo sapiens, UniProt Q9NRG0)
T1 sequence (Q9NRG0 1-131): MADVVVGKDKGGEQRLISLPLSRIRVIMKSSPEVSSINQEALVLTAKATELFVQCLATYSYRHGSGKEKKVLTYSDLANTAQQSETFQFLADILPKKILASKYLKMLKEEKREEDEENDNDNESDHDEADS

[2] = target: T2, cysteines in MDA-MB-231 and Ramos cells (Homo sapiens, UniProt Q99757)
T2 sequence (Q99757 60-166): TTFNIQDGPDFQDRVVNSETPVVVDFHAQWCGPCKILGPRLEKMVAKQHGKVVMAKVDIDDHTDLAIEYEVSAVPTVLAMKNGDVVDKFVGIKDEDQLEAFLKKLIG

[3] = target: cysteines in MDA-MB-231 and Ramos cells (Homo sapiens, UniProt P04406)
[4] = target: T3, cysteines in MDA-MB-231 and Ramos cells (Homo sapiens, UniProt Q9NYL9)
T3 sequence (Q9NYL9 1-352): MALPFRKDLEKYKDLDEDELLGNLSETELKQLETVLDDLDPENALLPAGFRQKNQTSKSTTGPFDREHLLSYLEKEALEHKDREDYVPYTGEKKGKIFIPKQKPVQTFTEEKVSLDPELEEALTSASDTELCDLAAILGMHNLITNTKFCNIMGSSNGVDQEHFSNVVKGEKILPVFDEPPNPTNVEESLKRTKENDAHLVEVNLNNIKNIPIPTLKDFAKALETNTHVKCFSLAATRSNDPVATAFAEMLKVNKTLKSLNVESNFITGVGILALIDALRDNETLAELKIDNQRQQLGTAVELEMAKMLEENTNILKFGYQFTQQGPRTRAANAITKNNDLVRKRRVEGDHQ

[5] = target: cysteines in MDA-MB-231 and Ramos cells (Homo sapiens, UniProt P15121)
[6] = target: T4, cysteines in MDA-MB-231 and Ramos cells (Homo sapiens, UniProt Q9BTA9)
T4 sequence (Q9BTA9 1-647): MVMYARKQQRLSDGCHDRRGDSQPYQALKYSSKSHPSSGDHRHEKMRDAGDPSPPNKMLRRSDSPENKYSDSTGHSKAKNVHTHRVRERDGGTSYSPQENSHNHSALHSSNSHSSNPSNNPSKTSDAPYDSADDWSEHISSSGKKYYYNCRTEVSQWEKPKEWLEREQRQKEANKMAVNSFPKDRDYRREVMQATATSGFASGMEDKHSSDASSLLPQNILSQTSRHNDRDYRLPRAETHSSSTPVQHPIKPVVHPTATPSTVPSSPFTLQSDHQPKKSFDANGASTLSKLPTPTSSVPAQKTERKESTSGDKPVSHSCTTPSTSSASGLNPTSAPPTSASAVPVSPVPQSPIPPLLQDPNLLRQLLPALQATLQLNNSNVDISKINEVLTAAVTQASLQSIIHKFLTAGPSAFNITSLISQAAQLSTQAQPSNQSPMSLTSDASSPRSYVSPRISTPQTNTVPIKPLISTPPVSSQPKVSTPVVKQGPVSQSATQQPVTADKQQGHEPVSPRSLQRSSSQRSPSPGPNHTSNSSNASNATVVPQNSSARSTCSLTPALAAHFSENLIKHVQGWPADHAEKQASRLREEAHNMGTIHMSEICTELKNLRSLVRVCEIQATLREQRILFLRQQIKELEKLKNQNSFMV

[7] = target: cysteines in MDA-MB-231 and Ramos cells (Homo sapiens, UniProt Q15365)
[8] = target: cysteines in MDA-MB-231 and Ramos cells (Homo sapiens, UniProt P83731)
[9] = target: cysteines in MDA-MB-231 and Ramos cells (Homo sapiens, UniProt Q02252)
[10] = target: T5, cysteines in MDA-MB-231 and Ramos cells (Homo sapiens, UniProt A6NDU8)
T5 sequence (A6NDU8 1-294): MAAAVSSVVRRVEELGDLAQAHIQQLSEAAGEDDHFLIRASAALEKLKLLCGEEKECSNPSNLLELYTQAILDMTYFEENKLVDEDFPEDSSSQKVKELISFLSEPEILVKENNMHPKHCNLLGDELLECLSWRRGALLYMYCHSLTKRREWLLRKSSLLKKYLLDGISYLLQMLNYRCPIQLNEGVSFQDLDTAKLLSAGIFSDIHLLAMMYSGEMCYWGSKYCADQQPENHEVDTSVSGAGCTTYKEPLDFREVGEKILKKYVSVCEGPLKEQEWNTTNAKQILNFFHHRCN

[11] = target: T6, cysteines in MDA-MB-231 and Ramos cells (Homo sapiens, UniProt Q9BRA2)
T6 sequence (Q9BRA2 1-123): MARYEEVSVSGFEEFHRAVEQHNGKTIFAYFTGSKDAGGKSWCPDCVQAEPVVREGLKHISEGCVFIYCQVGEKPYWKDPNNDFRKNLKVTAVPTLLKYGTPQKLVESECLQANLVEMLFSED

cysteines in MDA-MB-231 and Ramos cells (Homo sapiens, UniProt Q02252), sequence (Q02252 34-535): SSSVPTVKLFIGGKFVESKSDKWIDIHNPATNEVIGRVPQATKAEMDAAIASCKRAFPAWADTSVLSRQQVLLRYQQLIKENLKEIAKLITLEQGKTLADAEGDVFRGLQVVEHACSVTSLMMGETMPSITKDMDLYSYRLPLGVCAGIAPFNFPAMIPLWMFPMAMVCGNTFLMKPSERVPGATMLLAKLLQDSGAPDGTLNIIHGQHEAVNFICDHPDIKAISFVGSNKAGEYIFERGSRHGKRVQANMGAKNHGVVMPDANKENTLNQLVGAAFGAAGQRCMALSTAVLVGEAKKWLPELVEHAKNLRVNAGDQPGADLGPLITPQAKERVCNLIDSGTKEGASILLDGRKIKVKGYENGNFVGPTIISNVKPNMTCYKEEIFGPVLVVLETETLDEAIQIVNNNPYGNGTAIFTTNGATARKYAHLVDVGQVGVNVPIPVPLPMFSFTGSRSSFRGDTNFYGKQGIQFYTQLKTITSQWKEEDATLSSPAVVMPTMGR
cysteines in MDA-MB-231 and Ramos cells (Homo sapiens, UniProt Q15365), sequence (Q15365 whole entry): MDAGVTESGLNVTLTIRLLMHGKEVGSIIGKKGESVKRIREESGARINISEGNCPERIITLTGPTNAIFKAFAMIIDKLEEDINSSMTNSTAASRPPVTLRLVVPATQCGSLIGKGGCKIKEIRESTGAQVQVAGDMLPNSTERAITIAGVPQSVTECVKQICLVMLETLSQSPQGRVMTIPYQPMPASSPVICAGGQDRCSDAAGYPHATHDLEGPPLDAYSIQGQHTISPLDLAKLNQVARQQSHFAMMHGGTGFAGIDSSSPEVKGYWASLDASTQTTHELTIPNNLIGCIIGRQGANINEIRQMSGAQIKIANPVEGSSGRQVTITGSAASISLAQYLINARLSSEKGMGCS
cysteines in MDA-MB-231 and Ramos cells (Homo sapiens, UniProt P04406), sequence (P04406 whole entry): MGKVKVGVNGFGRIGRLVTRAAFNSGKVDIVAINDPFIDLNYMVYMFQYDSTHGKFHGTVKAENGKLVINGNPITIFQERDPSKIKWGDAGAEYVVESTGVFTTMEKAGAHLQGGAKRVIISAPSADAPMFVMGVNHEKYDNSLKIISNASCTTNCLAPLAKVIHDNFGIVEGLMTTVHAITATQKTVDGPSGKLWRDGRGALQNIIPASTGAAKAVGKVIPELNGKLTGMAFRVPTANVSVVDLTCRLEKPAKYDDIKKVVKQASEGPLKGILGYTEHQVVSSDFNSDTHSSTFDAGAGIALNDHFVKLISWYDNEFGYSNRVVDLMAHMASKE

isoTOP-ABPP ratio Q9NRG0_C55 ([1]; 200 μM, insitu, 231): 1.1 | isoTOP-ABPP ratio Q99757_C90 ([2]; 200 μM, insitu, 231): 5.0 | isoTOP-ABPP ratio P04406_C152 ([3]; 200 μM, insitu, 231): 1.0 | isoTOP-ABPP ratio Q9NYL9_C132 ([4]; 200 μM, insitu, 231): 0.8 | isoTOP-ABPP ratio P15121_C299 ([5]; 200 μM, insitu, 231): 0.9 | isoTOP-ABPP ratio Q9BTA9_C553 ([6]; 200 μM, insitu, 231): 1.2 | isoTOP-ABPP ratio Q15365_C194 ([7]; 200 μM, insitu, 231): 0.6
SMILES: O=C(CCl)Nc1cccc2ncccc12 [compound 51]

isoTOP-ABPP ratio Q9NRG0_C55 ([1]; 100 μM in situ 231): 1.1 | isoTOP-ABPP ratio P83731_C6 ([8]; 100 μM in situ 231): 0.5 | isoTOP-ABPP ratio Q99757_C90 ([2]; 100 μM in situ 231): 2.7 | isoTOP-ABPP ratio P04406_C152 ([3]; 100 μM in situ 231): 0.8 | isoTOP-ABPP ratio Q02252_C317 ([9]; 100 μM in situ 231): 0.9 | isoTOP-ABPP ratio A6NDU8_C179 ([10]; 100 μM in situ 231): 0.7 | isoTOP-ABPP ratio Q9NYL9_C132 ([4]; 100 μM in situ 231): 0.5 | isoTOP-ABPP ratio P15121_C299 ([5]; 100 μM in situ 231): 0.7 | isoTOP-ABPP ratio Q9BRA2_C43 ([11]; 100 μM in situ 231): 17.7 | isoTOP-ABPP ratio Q9BTA9_C553 ([6]; 100 μM in situ 231): 1.7 | isoTOP-ABPP ratio Q15365_C194 ([7]; 100 μM in situ 231): 0.4
SMILES: Cn1cc(S(=O)(=O)N2CCOCC2)cc1C(=O)NC(=O)CCl [compound 11]

isoTOP-ABPP ratio Q9NRG0_C55 ([1]; 200 μM, insitu, 231): 2.7 | isoTOP-ABPP ratio P83731_C6 ([8]; 200 μM, insitu, 231): 0.4 | isoTOP-ABPP ratio P83731_C6 ([8]; 200 μM, insitu, ramos): 2.0 | isoTOP-ABPP ratio P04406_C152 ([3]; 200 μM, insitu, 231): 1.0 | isoTOP-ABPP ratio P04406_C152 ([3]; 200 μM, insitu, ramos): 0.9 | isoTOP-ABPP ratio Q02252_C317 ([9]; 200 μM, insitu, 231): 1.5 | isoTOP-ABPP ratio Q02252_C317 ([9]; 200 μM, insitu, ramos): 0.7 | isoTOP-ABPP ratio A6NDU8_C179 ([10]; 200 μM, insitu, 231): 1.3 | isoTOP-ABPP ratio P15121_C299 ([5]; 200 μM, insitu, 231): 20.0 | isoTOP-ABPP ratio Q9BRA2_C43 ([11]; 200 μM, insitu, 231): 20.0 | isoTOP-ABPP ratio Q9BTA9_C553 ([6]; 200 μM, insitu, 231): 20.0 | isoTOP-ABPP ratio Q15365_C194 ([7]; 200 μM, insitu, 231): 1.6 | isoTOP-ABPP ratio Q15365_C194 ([7]; 200 μM, insitu, ramos): 2.0
SMILES: O=C(CCl)N1CCN(S(=O)(=O)c2ccccc2F)CC1 [compound 10]

isoTOP-ABPP ratio Q9NRG0_C55 ([1]; 200 μM, insitu, ramos): 1.6 | isoTOP-ABPP ratio Q99757_C90 ([2]; 200 μM, insitu, 231): 1.4 | isoTOP-ABPP ratio P04406_C152 ([3]; 200 μM, insitu, 231): 0.8 | isoTOP-ABPP ratio P04406_C152 ([3]; 200 μM, insitu, ramos): 1.0 | isoTOP-ABPP ratio Q9NYL9_C132 ([4]; 200 μM, insitu, 231): 0.7 | isoTOP-ABPP ratio Q9NYL9_C132 ([4]; 200 μM, insitu, ramos): 0.7 | isoTOP-ABPP ratio P15121_C299 ([5]; 200 μM, insitu, 231): 0.8 | isoTOP-ABPP ratio P15121_C299 ([5]; 200 μM, insitu, ramos): 1.3 | isoTOP-ABPP ratio Q9BRA2_C43 ([11]; 200 μM, insitu, 231): 0.6 | isoTOP-ABPP ratio Q15365_C194 ([7]; 200 μM, insitu, 231): 0.7 | isoTOP-ABPP ratio Q15365_C194 ([7]; 200 μM, insitu, ramos): 1.6
SMILES: C=CC(=O)N(Cc1cccnc1)c1cc(C(F)(F)F)cc(C(F)(F)F)c1 [compound 31]

Continued, compound first:

SMILES: C=CC(=O)Nc1cc(F)c(N2CCN(C(=O)OC(C)(C)C)CC2)c(F)c1 [compound 38]
isoTOP-ABPP ratio Q9NRG0_C55 ([1]; 200 μM, insitu, 231): 1.0 | isoTOP-ABPP ratio P83731_C6 ([8]; 200 μM, insitu, 231): 2.1 | isoTOP-ABPP ratio Q99757_C90 ([2]; 200 μM, insitu, 231): 3.6 | isoTOP-ABPP ratio P04406_C152 ([3]; 200 μM, insitu, 231): 0.9 | isoTOP-ABPP ratio Q02252_C317 ([9]; 200 μM, insitu, 231): 2.4 | isoTOP-ABPP ratio A6NDU8_C179 ([10]; 200 μM, insitu, 231): 1.4 | isoTOP-ABPP ratio Q9NYL9_C132 ([4]; 200 μM, insitu, 231): 2.6 | isoTOP-ABPP ratio P15121_C299 ([5]; 200 μM, insitu, 231): 1.0 | isoTOP-ABPP ratio Q9BRA2_C43 ([11]; 200 μM, insitu, 231): 1.1 | isoTOP-ABPP ratio Q9BTA9_C553 ([6]; 200 μM, insitu, 231): 1.1 | isoTOP-ABPP ratio Q15365_C194 ([7]; 200 μM, insitu, 231): 15

SMILES: COc1cc2c(cc1OC)CN(C(=O)CCl)CC2 [compound 8]
isoTOP-ABPP reactivity Q9NRG0_C55 CHRAC1 ([1]; 200 μM, insitu, 231): 7.4 | isoTOP-ABPP reactivity Q99757_C90 TXN2 ([2]; 200 μM, insitu, 231): 4.5 | isoTOP-ABPP reactivity P04406_C152 GAPDH ([3]; 200 μM, insitu, 231): 1.1 | isoTOP-ABPP reactivity Q9NYL9_C132 TMOD3 ([4]; 200 μM, insitu, 231): 0.9 | isoTOP-ABPP reactivity P15121_C299 AKR1B1 ([5]; 200 μM, insitu, 231): 1.7 | isoTOP-ABPP reactivity Q9BRA2_C43 TXNDC17 ([11]; 200 μM, insitu, 231): 20.0 | isoTOP-ABPP reactivity Q9BTA9_0553 WAC ([6]; 200 μM, insitu, 231): 9.6 | isoTOP-ABPP reactivity Q15365_C194 PCBP1 ([7]; 200 μM, insitu, 231): 1.4

SMILES: CC(C)CCOCCNC(=O)CCl [compound 27]
isoTOP-ABPP ratio Q9NRG0_C55 ([1]; 200 μM, insitu, 231): 0.9 | isoTOP-ABPP ratio P83731_C6 ([8]; 200 μM, insitu, 231): 0.4 | isoTOP-ABPP ratio Q99757_C90 ([2]; 200 μM, insitu, 231): 6.3 | isoTOP-ABPP ratio P04406_C152 ([3]; 200 μM, insitu, 231): 0.5 | isoTOP-ABPP ratio Q02252_C317 ([9]; 200 μM, insitu, 231): 2.0 | isoTOP-ABPP ratio A6NDU8_C179 ([10]; 200 μM, insitu, 231): 0.7 | isoTOP-ABPP ratio Q9NYL9_C132 ([4]; 200 μM, insitu, 231): 0.6 | isoTOP-ABPP ratio P15121_C299 ([5]; 200 μM, insitu, 231): 0.5 | isoTOP-ABPP ratio Q9BRA2_C43 ([11]; 200 μM, insitu, 231): 20.0 | isoTOP-ABPP ratio Q15365_C194 ([7]; 200 μM, insitu, 231): 0.5
